From ChEMBL document CHEMBL2311270, “Additional acetyl cholinesterase inhibitory property of diaryl pyrazoline derivatives” (Bioorg Med Chem Lett, 2013)
Activity calls are given as the source filed them. The calls are words filed in the database; no cut-off is given here.

Assays:
[1] = target: Acetylcholinesterase (Homo sapiens, UniProt P22303)
Description: Inhibition of human erythrocyte AChE using acetylthiocholine iodide as substrate after 60 mins by Ellman's method

[2] = target: Cholinesterase (Equus caballus) (UniProt P81908); experiment: Inhibition of equine serum BChE using butyrylthiocholine iodide as substrate up to 100 nM after 60 mins by Ellman's method
Cholinesterase (Equus caballus), sequence (P81908 whole entry): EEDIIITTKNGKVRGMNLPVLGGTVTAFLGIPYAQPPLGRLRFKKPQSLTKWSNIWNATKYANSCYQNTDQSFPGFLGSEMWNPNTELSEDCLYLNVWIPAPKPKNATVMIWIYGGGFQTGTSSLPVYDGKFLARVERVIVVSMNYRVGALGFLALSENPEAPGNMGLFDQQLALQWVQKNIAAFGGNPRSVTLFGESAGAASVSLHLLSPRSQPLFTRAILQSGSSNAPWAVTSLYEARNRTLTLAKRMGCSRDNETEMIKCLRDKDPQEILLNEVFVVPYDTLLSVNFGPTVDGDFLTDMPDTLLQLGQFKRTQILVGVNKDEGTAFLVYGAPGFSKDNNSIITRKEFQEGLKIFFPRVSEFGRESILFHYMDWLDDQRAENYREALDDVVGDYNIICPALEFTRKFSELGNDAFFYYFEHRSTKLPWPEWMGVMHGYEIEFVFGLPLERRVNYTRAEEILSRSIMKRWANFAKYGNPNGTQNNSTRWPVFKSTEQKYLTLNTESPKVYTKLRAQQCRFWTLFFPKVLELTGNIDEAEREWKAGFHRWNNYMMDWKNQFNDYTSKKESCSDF

Acetylcholinesterase, sequence (P22303 whole entry): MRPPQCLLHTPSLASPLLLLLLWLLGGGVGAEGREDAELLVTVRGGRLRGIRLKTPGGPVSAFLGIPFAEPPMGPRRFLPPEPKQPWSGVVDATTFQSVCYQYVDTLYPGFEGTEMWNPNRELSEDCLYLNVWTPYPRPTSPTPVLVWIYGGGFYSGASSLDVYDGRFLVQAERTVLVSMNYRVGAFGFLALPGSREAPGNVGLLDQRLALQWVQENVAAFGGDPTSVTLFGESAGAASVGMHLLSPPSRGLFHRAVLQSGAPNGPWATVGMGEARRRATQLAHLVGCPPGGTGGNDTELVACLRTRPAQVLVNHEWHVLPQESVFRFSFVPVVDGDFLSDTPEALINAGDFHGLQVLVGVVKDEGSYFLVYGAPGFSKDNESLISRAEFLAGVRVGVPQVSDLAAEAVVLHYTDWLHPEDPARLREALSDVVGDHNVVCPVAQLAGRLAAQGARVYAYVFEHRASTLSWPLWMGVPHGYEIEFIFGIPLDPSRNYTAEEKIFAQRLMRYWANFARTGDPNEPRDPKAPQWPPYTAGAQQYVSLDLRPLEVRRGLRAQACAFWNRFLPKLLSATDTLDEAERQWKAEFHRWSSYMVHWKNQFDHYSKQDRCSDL

Structure (SMILES)	Ki [1] [nM]	inhibition [2]
Oc1ccc([C@@H]2CC(c3c4ccccc4cc4ccccc34)=NN2)cc1	> 100	–
Oc1ccc([C@@H]2CC(c3c4ccccc4cc4ccccc34)=NN2)c(O)c1	7.2	inactive
c1ccc([C@@H]2CC(c3c4ccccc4cc4ccccc34)=NN2)cc1	30.2	inactive
O=[N+]([O-])c1ccc([C@@H]2CC(c3c4ccccc4cc4ccccc34)=NN2)cc1	> 100	–
COc1ccc([C@@H]2CC(c3c4ccccc4cc4ccccc34)=NN2)cc1	25.4	inactive
c1ccc([C@@H]2CC(c3c4ccccc4cc4ccccc34)=NN2)nc1	41.3	inactive
Clc1ccc([C@@H]2CC(c3c4ccccc4cc4ccccc34)=NN2)cc1	–	inactive
O=[N+]([O-])c1cccc([C@@H]2CC(c3c4ccccc4cc4ccccc34)=NN2)c1	20.6	inactive
Cc1ccc([C@@H]2CC(c3c4ccccc4cc4ccccc34)=NN2)cc1	> 100	–
Oc1ccccc1[C@@H]1CC(c2c3ccccc3cc3ccccc23)=NN1	24.4	inactive
